A word on the pIC50: it is the IC50 on a negative log10 scale, so that one unit is a factor of ten.

Here are results for two compounds from ChEMBL document CHEMBL4308881, “Tetradehydrohalicyclamine B, a new proteasome inhibitor from the marine sponge Acanthostrongylophora ingens” (Bioorg Med Chem Lett, 2019).

Format in all cases: cell-based
For data set [1], the target named is T1, Proteasome subunit beta type-9 (Homo sapiens, UniProt P28065).
T1 sequence (P28065 whole entry): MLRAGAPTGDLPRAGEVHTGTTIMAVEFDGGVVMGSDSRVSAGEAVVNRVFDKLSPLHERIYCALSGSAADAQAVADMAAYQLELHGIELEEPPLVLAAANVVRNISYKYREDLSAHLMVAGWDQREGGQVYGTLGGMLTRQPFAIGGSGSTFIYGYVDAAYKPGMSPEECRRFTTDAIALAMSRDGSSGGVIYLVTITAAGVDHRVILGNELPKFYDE
In words: Inhibition of 20s immunoproteasome LMP2 in human erythrocytes using Ac-Pro-Ala-Leu-MCA as substrate preincubated for 10 mins followed by substrate addition and measured after 6 hrs by fluorescence assay.

For data set [2], the target named is T2, Proteasome Macropain subunit MB1 (Homo sapiens, UniProt P28074).
T2 sequence (P28074 whole entry): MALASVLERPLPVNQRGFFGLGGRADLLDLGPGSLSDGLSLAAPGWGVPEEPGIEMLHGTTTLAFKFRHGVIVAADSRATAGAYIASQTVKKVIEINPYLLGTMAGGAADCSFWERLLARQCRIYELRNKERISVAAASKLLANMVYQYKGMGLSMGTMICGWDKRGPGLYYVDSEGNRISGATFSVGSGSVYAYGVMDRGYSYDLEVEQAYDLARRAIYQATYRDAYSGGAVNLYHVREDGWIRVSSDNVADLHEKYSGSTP
Briefly: Inhibition of 20s constitutive proteasome beta5 chymotrypsin-like activity in human erythrocytes using Suc-Leu-Leu-ValTyr-MCA as substrate preincubated for 10 mins followed by substrate addition and measured after 6 hrs by fluorescence assay.

For data set [3], the target named is T3, Proteasome subunit beta type-8 (Homo sapiens, UniProt P28062).
T3 sequence (P28062 whole entry): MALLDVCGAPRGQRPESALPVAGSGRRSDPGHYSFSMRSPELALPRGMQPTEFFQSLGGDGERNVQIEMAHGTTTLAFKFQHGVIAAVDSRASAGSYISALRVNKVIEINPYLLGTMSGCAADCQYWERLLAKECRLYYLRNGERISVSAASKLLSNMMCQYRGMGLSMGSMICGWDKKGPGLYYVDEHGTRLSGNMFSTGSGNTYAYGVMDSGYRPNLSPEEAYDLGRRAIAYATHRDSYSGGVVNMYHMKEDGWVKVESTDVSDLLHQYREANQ
Briefly: Inhibition of 20s immunoproteasome LMP7 in human erythrocytes using Suc-Leu-Leu-ValTyr-MCA as substrate preincubated for 10 mins followed by substrate addition and measured after 6 hrs by fluorescence assay.

Data set [4] deals with T4, Proteasome subunit beta type-10 (Homo sapiens) (UniProt P40306).
T4 sequence (whole entry): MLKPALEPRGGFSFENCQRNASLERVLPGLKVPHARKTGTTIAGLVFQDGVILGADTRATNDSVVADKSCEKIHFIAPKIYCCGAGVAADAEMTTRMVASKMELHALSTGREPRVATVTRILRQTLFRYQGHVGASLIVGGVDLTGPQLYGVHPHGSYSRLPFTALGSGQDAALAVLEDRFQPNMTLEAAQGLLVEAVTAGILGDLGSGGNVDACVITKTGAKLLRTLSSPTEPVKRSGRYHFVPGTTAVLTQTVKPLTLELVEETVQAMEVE
In words: Inhibition of 20s immunoproteasome MECL1 in human erythrocytes at 15 uM using Suc-Leu-Leu-ValTyr-MCA as substrate preincubated for 10 mins followed by substrate addition and measured after 6 hrs by fluorescence assay.

Data set [5] deals with HeLa. Briefly: Cytotoxicity against human HeLa cells at 50 uM after 3 days by MTT assay. To be noted: 72 h. (In general: Tetrazolium assays rely on reduction of a dye to a coloured formazan, in cell work by metabolically active cells.)
The target in data set [6] is T5, Proteasome subunit beta type-10 (Homo sapiens, UniProt P40306).
T5 sequence (P40306 whole entry): T4 sequence (whole entry)
Briefly: Inhibition of 20s immunoproteasome MECL1 in human erythrocytes using Suc-Leu-Leu-ValTyr-MCA as substrate preincubated for 10 mins followed by substrate addition and measured after 6 hrs by fluorescence assay.

Data set [7] concerns HeLa. Briefly: Cytotoxicity against human HeLa cells after 3 days by MTT assay. To be noted: 72 h.

pIC50: −log10 of the molar value. Activity calls are given as the source filed them. The rule behind the calls is not given here.

For `C1=C\CCc2cc3c[n+](c2)CCCC/C=C\CC[C@@H]2CN(CCCC/1)CC[C@@H]32`, the pIC50 was 5.51 in data set [1], 5.74 in data set [2] and 5.39 in data set [3]. Further, the inhibition result in data set [4] is “inactive”. Also, the Activity entry in the data set with HeLa [5] was “Non-Toxic”.

As for `C1=C2CN3CCCC/C=C\CC[C@@H]4CN(CCCC/C=C\CC[C@H]1C3)CC[C@@H]24`, the negative-log IC50 (pIC50) in data set [1] is 6.36; in data set [6] it was 5.10; with HeLa [7], 4.92; in data set [2] it was 6.38; in data set [3], 6.20.
